This is an account of results in EP4786465A1, “NOVEL COMPOUND, AND PHARMACEUTICAL COMPOSITION FOR PREVENTION OR TREATMENT OF CANCER OR TUMORS COMPRISING SAME” (Daewoong Pharmaceutical Co., Ltd., priority 2023, dated 2025).

Each structure is given as a SMILES string.

Common to all, as to assay type: cell-based
The subject of test [1] is transcription factor TEAD. The test can be described thus: Activity inhibition test of transcription factor TEAD (ONE-Glo Luciferase assay, Hippo Pathway TEAD reporter-MCF7 recombinant cell line). As to conditions: Homo sapiens; TEAD Reporter-MCF7 cells, 24 hours treatment, luciferase luminescence. How it is done:
The transcription factor TEAD activity of the compounds prepared in the Examples was measured by the ONE-Glo™ Luciferase assay (Promega, Catalog #E6110) method using the Hippo Pathway TEAD reporter-MCF7 recombinant cell line (BPS Bioscience, Catalog #60618). Specifically, the TEAD Reporter-MCF7 cell line contains the firefly luciferase gene whose expression is regulated under the control of TEAD response elements in the MCF7, which is a human breast cancer cell line. In the cell line, a non-phosphorylated YAP/TAZ exists in the nucleus in a non-stressed condition, which continuously induces expression of the luciferase reporter. TEAD Reporter-MCF7 cells were prepared in 100 µL of cell culture medium (MEM medium, 10% FBS, 1% P/S, 400 µg/mL Geneticin, 1% […], 1 mM NA pyruvate, 10 µg/mL Insulin) in a white clear bottom 96-well microplate. The prepared plate was incubated in a 5% CO2 incubator at 37°C for 24 hours, and then the previously prepared compounds of Examples were finally treated at concentrations of 0.0005, 0.005, 0.05, 0.5 and 5 µM, which were repeated three times for all treatment solutions. The plates treated with the compounds of Examples were incubated in a 5% CO2 incubator at 37°C for 24 hours. 100 µL/well of the substrate aqueous solution containing luciferin was added to a white clear-bottom 96 well microplate, thereby initiating an enzyme reaction. The reaction was performed at room temperature for 5 minutes, and the luminescence (integration time 1000 ms) was measured using a Flexstation3 multi-mode microplate reader. In accordance with the instructions for the ONE-Glo™ Luciferase Assay, the luciferase enzyme activity, which represents the activity of the transcription factor TEAD, was measured by a chemiluminescence method, and the inhibitory activity of the compound according to the present disclosure was calculated. The results of each compound were analyzed using Microsoft Excel, and the IC50 values were calculated by GraphPad Prism software.

The test system of test [2] is NCI-H226. The test can be described thus: Cell growth inhibition test (CellTiter-Glo Luminescent Cell Viability), NCI-H226. As to conditions: Homo sapiens; NCI-H226 cells, CellTiter-Glo; read-out: growth IC50 H226. How it is done: (§1) The cell growth for the compounds prepared in Examples was measured by CellTiter-Glo® Luminescednt Cell Viability (Promega, Catalog #G7571) method using NCI-H226 (addexbio), NCI-H28 (Korea Cell Line Bank) cell lines. This evaluation method is a method in which when luciferase enzyme is activated by ATP flowing out from living cells, it reacts with a luciferin substrate, and the enzyme activity at this time is measured to confirm cell viability.
(§2) Specifically, NCI-H226, and NCI-H28 cells were prepared in 100 µL of cell culture medium (RPMI medium, 10% FBS, 1% P/S, 4.5 g/L D-Glucose, 2.383 g/L HEPES Buffer, L-Glutamine, 1.5 g/L Sodium Bicarbonate, 110 mg/L Sodium pyruvate) in a white clear bottom 96-well microplate. The prepared plate was incubated in a 5% CO2 incubator at 37°C for 24 hours, and then the previously prepared compounds of Examples were finally treated at concentrations of 0.0005, 0.005, 0.05, 0.5 and 5 µM, which was repeated three times for all treatment solutions. The plates treated with the compounds of Examples were incubated in a 5% CO2 incubator at 37°C. 100 µL/well of the substrate aqueous solution containing luciferin was added to a white clear-bottom 96 well microplate, thereby initiating an enzyme reaction. The reaction was performed at room temperature in the dark for 10 minutes, and the luminescence was measured using a Flexstation3 multi-mode microplate reader. In accordance with the instructions for the CellTiter-Glo™ Luminescednt Cell Viability, the luciferase enzyme activity, which represents the amount of ATP, was measured by a chemiluminescence method, and the inhibitory activity of the compounds according to the present disclosure was calculated. The results of each compound were analyzed using Microsoft Excel, and the IC50 values were calculated using GraphPad Prism software.
(ATP-based viability assays read luminescence as a measure of living cells.)

For test [3], the system named is NCI-H28. In words: Cell growth inhibition test (CellTiter-Glo Luminescent Cell Viability), NCI-H28. As to conditions: Homo sapiens; NCI-H28 cells, CellTiter-Glo; read-out: growth IC50 H28. As for the experimental part:
as §1, §2

As for `C=CC(=O)N1CCc2c(ccc(Nc3cc(F)c(C(F)(F)F)c(F)c3)c2-c2cn(C)cn2)C1` [Example 17, 1-(6-((3,5-difluoro-4-(trifluoromethyl)phenyl)amino)-5-(1-methyl-1H-imidazol-4-yl)-3,4-dihydroisoquinolin-2(1H)-yl)prop-2-en-1-one], the IC50 in test [1] came out at 8.6 nM; in test [2], 9.6 nM; in test [3], 3300 nM.

Turning to `C=CC(=O)N1CCc2c(ccc(Nc3cccc(C(F)(F)F)c3)c2-c2cn(C)cn2)C1` [Example 20, 1-(5-(1-methyl-1H-imidazol-4-yl)-6-((3-(trifluoromethyl)phenyl)amino)-3,4-dihydroisoquinolin-2(1H)-yl)prop-2-en-1-one], the results for the IC50 in test [1], in test [2] and in test [3] were 45 nM, 139 nM and 1120 nM, respectively.

Consider `C=CC(=O)N1CCc2c(ccc(Nc3cc(Cl)cc(Cl)c3)c2-c2cn(C)cn2)C1` [Example 21, 1-(6-((3,5-dichlorophenyl)amino)-5-(1-methyl-1H-imidazol-4-yl)-3,4-dihydroisoquinolin-2(1H)-yl)prop-2-en-1-one], for which the IC50 was 90.2 nM in test [1], 95 nM in test [2] and greater than 5000 nM in test [3].

On to `C=CC(=O)N1CCc2c(ccc(Nc3ccc(C(F)(F)F)cc3)c2-c2cn(CC)cn2)C1` [Example 24, 1-(5-(1-ethyl-1H-imidazol-4-yl)-6-((4-(trifluoromethyl)phenyl)amino)-3,4-dihydroisoquinolin-2(1H)-yl)prop-2-en-1-one], for which the IC50 is 15.4 nM in test [1], 80 nM in test [2] and greater than 5000 nM in test [3].

What is called IC50 is the concentration that inhibits the measured activity by half.
